Measured values published in patent US7579365B2 (ZIOPHRAM Oncology, Inc., priority 1998, dated 2009).
Values after ≈ are worked out from the molar mass of the structure shown. “Also recorded” adds a separate entry of the source. Read-outs that look alike come from different tables or passages of the source.

Legend:
L1210 [1] = assay: L1210 leukemia model in vivo (% ILS, survival time); parameters: species or system mouse; conditions: for Antitumor action on L 1210 (mouse): oral and intraperitoneal administration
Excerpt: (§1) In the hollow fiber assay, both compounds were almost equally strongly active, while on L 1210 D-24851 was markedly more strongly active after oral and intraperitoneal administration than D-24241.

SK-OV-3 cell line = assay: XTT proliferation test/cytotoxicity test, SK-OV-3 cell line; assay type: cell-based; conditions: for EC50: Homo sapiens, SK-OV-3, SK-OV-3 tumor cells, read-out: XTT EC50 SK-OV-3
Experimental: (§2) In this test system, the effect of substances on the proliferation behavior of tumor cell lines is investigated. In the course of this, the cytotoxic potential of these substances is determined. The test method is described in Scudiero et al. 1988, Cancer Res. 48, 4827.
(§3) The following tumor cell lines were employed in the investigations:
(§4) The KB cell line an epidermal carcinoma of the oral cavity,
(§5) the L1210 cell line a lymphatic leukemia of the mouse, the LNCAP cell line a prostate carcinoma and the SK-OV-3 cell line an ovarian carcinoma.

MCF-7 = assay: Hollow fiber assay on the nude mouse, MCF-7; assay type: in vivo
Excerpt: as §1

LNCAP cell line = assay: XTT proliferation test/cytotoxicity test, LNCAP cell line; assay type: cell-based; conditions: LNCaP tumor cells; for EC50: Homo sapiens, read-out: XTT EC50 LNCaP
Experimental: as §2, §3, §4, §5

[2] = in vivo; for Tox. i.p.: ip
KB [3] = assay: Hollow fiber assay on the nude mouse, KB; assay type: in vivo
Excerpt: as §1

L1210 [4] = assay: Hollow fiber assay on the nude mouse, L1210; assay type: in vivo
Excerpt: as §1

L1210 cell line = assay: XTT proliferation test/cytotoxicity test, L1210 cell line; assay type: cell-based, mouse; conditions: for XTT EC50 L1210: L1210 tumor cells; for EC50: Mus musculus, L1210, L1210 tumor cells, read-out: XTT EC50 L1210
Experimental: as §2, §3, §4, §5

KB cell line = assay: XTT proliferation test/cytotoxicity test, KB cell line; assay type: cell-based; conditions: KB tumor cells; for EC50: Homo sapiens, KB, read-out: XTT EC50 KB
Experimental: as §2, §3, §4, §5

KB [5] = assay: KB test on the nude mouse (% WHI); assay type: in vivo; conditions: for % WHI: KB
Hematopoiesis test = assay type: in vivo; conditions: intraperitoneal administration; listed as D-24851
SK-OV-3 = assay: In vivo % WHI printed in the SK-OV-3 column of Table 3
DNA = DNA fragmentation; conditions: after administration
Dunning tumor = Dunning tumor in the rat; assay type: in vivo; conditions: repeated oral administration, 7×100 mg/kg and 7×147 mg/kg p.o.
L1210 [6] = assay: L1210 leukemia model in vivo (% ILS, survival time); conditions: Mus musculus, L1210, iv

## O=C(Nc1ccncc1)C(=O)c1cn(Cc2ccc(F)cc2)c2ccccc12 [Example 1, N-(Pyridin-4-yl)-[1-(4-fluorobenzyl)indol-3-yl]glyoxylamide]
L1210 [1]; 19 × 50 mg/kg per os, listed as D-24241, 50 mg/kg
  % ILS L1210: 50% ILS
L1210 [1]; Mus musculus, L1210, po, 1 × 464 mg/kg per os
  ILS at 464 mg/kg: 44%
L1210 [1]; Mus musculus, L1210, po, 19 × 50 mg/kg per os
  ILS at 50 mg/kg: 50%
L1210 [1]
  Antitumor action on L 1210 (mouse): strong dose-dependent antitumor action
SK-OV-3 cell line
  EC50: 0.17 µg/mL (≈ 0.455 µM)
SK-OV-3 cell line; SK-OV-3 tumor cells, listed as D-24241
  XTT EC50 SK-OV-3: SKOV3 ≈ 0.17 μg/ml
MCF-7; 4 × 15.8 mg/kg ip
  Hollow fiber intraperitoneal % INH: no action
  Hollow fiber subcutaneous % INH: 33%
LNCAP cell line
  EC50: > 31.6 µg/mL
LNCAP cell line; listed as D 24241
  XTT EC50 LNCaP: >31.6 µg/mL
LNCAP cell line; listed as D-24241
  XTT EC50 LNCaP: LNCAP > 31.6 μg/ml
[2]
  Tox. i.p.: ≈158 i.p. mg/kg
KB [3]; 4 × 15.8 mg/kg ip
  Hollow fiber intraperitoneal % INH: 46%
  Hollow fiber subcutaneous % INH: 81%
L1210 [4]; 4 × 15.8 mg/kg ip
  Hollow fiber intraperitoneal % INH: 43%
  Hollow fiber subcutaneous % INH: 68%
L1210 cell line; listed as 1 (D 24241)
  XTT EC50 L1210: 0.170 µg/mL
L1210 cell line; listed as D 24241
  XTT EC50 L1210: ≈0.17 μg/ml
L1210 cell line; listed as D-24241
  XTT EC50 L1210: L1210 ≈ 0.07 μg/ml
KB cell line
  EC50: 0.02 µg/mL (≈ 0.0536 µM)
KB cell line; listed as D-24241
  XTT EC50 KB: KB ≈ 0.02 μg/ml
In vivo; LD50 1 × per os
  LD50: > 1000 mg/kg
In vivo; ip, LD50 1 × ip
  LD50: ~158 mg/kg
KB [5]; 2 × 46.4 mg/kg ip
  % WHI: 22%
KB [5]; 2 × 215 mg/kg po
  % WHI: 47%
KB [5]
  Antitumor action in the KB test on the nude mouse: antitumor action

## O=C(Nc1ccncc1)C(=O)c1cn(Cc2ccc(Cl)cc2)c2ccccc12 [Example 13, N-(Pyridin-4-yl)-[1-(4-chlorobenzyl)indol-3-yl]glyoxylamide]
L1210 [1]; Mus musculus, L1210, ip, 1 × 464 mg/kg ip
  ILS at 464 mg/kg: 18%
L1210 [1]; Mus musculus, L1210, ip, 1 × 681 mg/kg ip
  ILS at 681 mg/kg: 0%
L1210 [1]; Mus musculus, L1210, ip, 4 × 147 mg/kg ip
  ILS at 147 mg/kg: 94%
L1210 [1]; Mus musculus, L1210, ip, 4 × 215 mg/kg ip
  ILS at 215 mg/kg: 13%
L1210 [1]; Mus musculus, L1210, ip, 7 × 100 mg/kg ip
  ILS at 100 mg/kg: 35%
L1210 [1]; Mus musculus, L1210, ip, 7 × 147 mg/kg ip
  ILS at 147 mg/kg: 59%
L1210 [1]; Mus musculus, L1210, po, 1 × 681 mg/kg po
  ILS at 681 mg/kg: 22%
L1210 [1]; Mus musculus, L1210, po, 4 × 215 mg/kg po
  ILS at 215 mg/kg: 31%
L1210 [1]; Mus musculus, L1210, po, 7 × 100 mg/kg po
  ILS at 100 mg/kg: 63%
L1210 [1]; Mus musculus, L1210, po, 7 × 147 mg/kg po
  ILS at 147 mg/kg: 75%
L1210 [1]; intraperitoneal or oral administration, 100 and 147 mg/kg multiple dose
  Prolongation of the survival time, L1210: distinct dose-dependent prolongation of the survival time
L1210 [1]
  Antitumor action on L 1210 (mouse): strong dose-dependent antitumor action
Hematopoiesis test
  Blood parameters in the hematopoiesis test: none of the blood parameters investigated were modified; also recorded: none of the blood parameters investigated were altered
SK-OV-3 cell line
  EC50: ~0.03 µg/mL (≈ 0.077 µM)
MCF-7; 4 × 46 mg/kg ip
  Hollow fiber intraperitoneal % INH: 38%
  Hollow fiber subcutaneous % INH: 47%
MCF-7; 4 × 147 mg/kg ip
  Hollow fiber intraperitoneal % INH: 68%
  Hollow fiber subcutaneous % INH: 68%
LNCAP cell line; LNCaP
  EC50: ~0.03 µg/mL (≈ 0.077 µM)
SK-OV-3; 2 × 215 mg/kg po
  % WHI: 18%
SK-OV-3; 7 × 46 mg/kg ip
  % WHI: 33%
[2]
  LD50 1 × per os: >1000 mg/kg
  Tox. i.p.: ≈1000 i.p. mg/kg
KB [3]; 4 × 46 mg/kg ip
  Hollow fiber subcutaneous % INH: 44%
KB [3]; 4 × 147 mg/kg ip
  Hollow fiber intraperitoneal % INH: 12%
  Hollow fiber subcutaneous % INH: 35%
L1210 [4]; 4 × 46 mg/kg ip
  Hollow fiber intraperitoneal % INH: 56%
  Hollow fiber subcutaneous % INH: no action
L1210 [4]; 4 × 147 mg/kg ip
  Hollow fiber intraperitoneal % INH: 60%
  Hollow fiber subcutaneous % INH: 67%
L1210 cell line
  EC50: ~0.017 µg/mL (≈ 0.0436 µM)
KB cell line
  EC50: ~0.017 µg/mL (≈ 0.0436 µM)
DNA
  DNA fragmentation: no DNA fragmentation
In vivo; LD50 1 × per os
  LD50: 1000 mg/kg
In vivo; ip, LD50 1 × ip
  LD50: > 1000 mg/kg
Dunning tumor; listed as D24851
  Tumor growth in the Dunning tumor: stoppage of tumor growth and in some animals even tumor regression
Dunning tumor; listed as D-24851
  Tumor growth in the Dunning tumor: Stoppage of tumor growth, in some animals even tumor regression
KB [5]
  Antitumor action in the KB test on the nude mouse: antitumor action

## CC(=O)O[C@H]1C(=O)[C@@]2(C)[C@H]([C@H](OC(=O)c3ccccc3)[C@]3(O)C[C@H](OC(=O)[C@H](O)[C@@H](NC(=O)c4ccccc4)c4ccccc4)C(C)=C1C3(C)C)[C@]1(OC(C)=O)CO[C@@H]1C[C@@H]2O [Taxol, reference compound]
SK-OV-3 cell line
  EC50: < 0.003 µg/mL
L1210 [6]; 1 × 14.7 mg/kg i.v.
  ILS at 14.7 mg/kg: 22%
L1210 [6]; 1 × 46.4 mg/kg i.v.
  ILS at 46.4 mg/kg: 61%
LNCAP cell line; LNCaP
  EC50: < 0.003 µg/mL
[2]
  Tox. i.p.: ≈158 i.p. mg/kg
L1210 cell line
  EC50: < 0.003 µg/mL
KB cell line
  EC50: < 0.003 µg/mL
